Source: PubChem BioAssay (NCI)
Values joined by “and” are separate entries in the source; they are usually repeats but may differ in a detail not shown here. Identical values can stand only once.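 All cell lines were grown in 96-well plates and treated with compound for 48 hours. The concentration for 50% growth inhibition is given as GI50. TGI denotes the concentration required for complete inhibition of growth.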

What was measured:
Test in all cases: NCI anticancer screen, dose series, 48 h
A498 renal = system: A498 renal
SK-MEL-28 melanoma = system: SK-MEL-28 melanoma
CCRF-CEM leukemia = system: CCRF-CEM leukemia
MOLT-4 leukemia = system: MOLT-4 leukemia
ACHN renal = system: ACHN renal
CAKI-1 renal = system: CAKI-1 renal
NCI-H23 lung = system: NCI-H23 lung
SF-539 CNS = system: SF-539 CNS
TK-10 renal = system: TK-10 renal
SF-268 CNS = system: SF-268 CNS

SMILES	TGI (A498 renal)	TGI (SK-MEL-28 melanoma)	TGI (CCRF-CEM leukemia)	TGI (MOLT-4 leukemia)	TGI (ACHN renal)	TGI (CAKI-1 renal)	TGI (NCI-H23 lung)	TGI (SF-539 CNS)	TGI (TK-10 renal)	TGI (SF-268 CNS)	GI50 (A498 renal)	GI50 (SK-MEL-28 melanoma)	GI50 (CCRF-CEM leukemia)	GI50 (MOLT-4 leukemia)	GI50 (ACHN renal)	GI50 (CAKI-1 renal)	GI50 (NCI-H23 lung)	GI50 (SF-539 CNS)	GI50 (TK-10 renal)	GI50 (SF-268 CNS)
N[C@H]1C2C3CC4C5CC(C42)C1(c1ccccc1)C53 (some centres not stated)	> 100 µM	> 100 µM	> 100 µM	> 100 µM	> 100 µM	> 100 µM	> 100 µM	> 100 µM	> 100 µM	> 100 µM										
O=[N+]([O-])c1ccc(-c2ccc(/C=N/n3c(-c4ccc(Cl)cc4)n[nH]c3=S)o2)cc1	> 100 µM	34 µM	> 100 µM	> 100 µM	> 60.8 µM	> 90.1 µM	> 56.6 µM	> 62.7 µM	> 64.7 µM	> 100 µM										
CCOC(=O)C1C=C2O[C@@H]3OC4(CCCCC4)O[C@@H]3C2[C@H]2C(=O)C=CC(=O)[C@@]12C(=O)OC (some centres not stated)	32.6 µM	30 µM	9.94 µM	8.71 µM	32.2 µM	31.3 µM	45.2 µM	6.16 µM	26.5 µM	29.6 µM										
COc1cc[nH]c1/C=C1\C(=O)Nc2ccc(F)c(C#C[C@@H](O)[C@@H](N)[C@@H](C)O)c21	0.955 µM	2.86 µM	2.35 µM	2.06 µM	2.94 µM	5.73 µM	3.33 µM	1.12 µM	1.86 µM	2.42 µM	0.397 µM	0.648 µM	0.709 µM	0.6 µM	0.323 µM	0.415 µM	0.649 µM	0.472 µM	0.258 µM	0.663 µM
O=C1C2=C(c3ccccc31)C(c1ccc(Cl)cc1)N1C(=O)CCSC1=N2 (configuration not stated)	> 100 µM	> 100 µM	> 100 µM	> 100 µM	> 100 µM	> 100 µM	> 100 µM	> 100 µM	> 100 µM	> 100 µM										
C[C@@H](c1ccc2nccn2c1)n1nnc2ncc(-c3cnn(C)c3)nc21	> 100 µM	> 100 µM	> 100 µM	> 100 µM	> 100 µM	> 100 µM	> 100 µM	> 100 µM	> 100 µM	> 100 µM	72.8 µM	> 100 µM	> 100 µM	> 100 µM	> 100 µM	> 100 µM	> 100 µM	> 100 µM	> 100 µM	> 100 µM
COc1ccccc1C(=O)/C=C/c1cc2cccc(OC)c2[nH]c1=O	0.0788 µM	6.63 µM	> 37.9 µM	5.2 µM	2.15 µM	1.54 µM	2.04 µM	0.0848 µM	11.5 µM	2.06 µM	0.0158 µM	1.08 µM	< 0.0182 µM	0.0408 µM	0.0557 µM	0.0241 µM	0.125 µM	0.0211 µM	1.14 µM	0.0935 µM
CCOC(=O)CCC(NC(=O)c1ccc(N=Cc2nc3cc(C(F)(F)F)ccc3nc2-c2ccccc2)cc1)C(=O)OCC (configuration not stated)	75 µM	> 100 µM	> 100 µM	> 100 µM	50 µM and > 100 µM	50 µM and > 100 µM	21.6 µM and > 100 µM	45.7 µM and 28.4 µM	29.5 µM and 58.2 µM	31.8 µM and > 100 µM		> 100 µM	> 100 µM	> 100 µM	46.3 µM	> 100 µM	28.9 µM	6.03 µM	21.6 µM	22.9 µM
CCOC(=O)/N=c1\ss/c(=N\C(=S)N(C)C)n1-c1ccccc1	> 100 µM	> 100 µM	> 100 µM	> 100 µM	> 100 µM	> 100 µM	> 100 µM	> 100 µM	> 100 µM	> 100 µM	35 µM	28.7 µM		> 100 µM						44.7 µM
O=C1C2=C(c3ccccc31)C(c1cccc(Cl)c1)NC(=S)N2 (configuration not stated)	> 100 µM	> 100 µM	> 100 µM	> 100 µM	> 100 µM	> 100 µM	> 100 µM	> 100 µM	> 100 µM	> 100 µM										
COc1cc(CCc2cc(NC(=O)c3ccc(N4C[C@@H](C)N[C@@H](C)C4)cc3)n[nH]2)cc(OC)c1	0.0838 µM and 0.12 µM	> 10 µM and 20.9 µM	> 10 µM and 18.3 µM	> 10 µM and 13.2 µM	> 10 µM and 15.3 µM	> 10 µM and 21.8 µM	> 10 µM and 17.3 µM	> 10 µM and 15.1 µM	> 10 µM and 23.6 µM	> 10 µM and 20.7 µM	0.014 µM and < 0.0107 µM	> 10 µM and 7.74 µM	> 10 µM and 3.69 µM	4.38 µM and 3.69 µM	9.45 µM and 4.41 µM	> 10 µM and 5.76 µM	> 10 µM and 3.98 µM	6.6 µM and 4.08 µM	> 10 µM and 10.4 µM	> 10 µM and 5.88 µM
C/C(=N\NC(=S)Nc1ccc(C(=O)O)cc1)c1ccccn1	50.7 µM	> 100 µM	> 100 µM	> 100 µM	30.4 µM	80.5 µM	98.6 µM	40.3 µM	> 100 µM	> 100 µM										
COc1cc(O)c(C(=O)/C=C/c2ccccc2)c(OC)c1	16.5 µM	13.1 µM	7.22 µM	25 µM	20.8 µM	18.2 µM	19.4 µM	12.8 µM	19.7 µM	20.8 µM										
CC1(C)CC(=O)C2=C(C1)NC(SSC1=C(C#N)C(c3ccccc3)C3=C(CC(C)(C)CC3=O)N1)=C(C#N)C2c1ccccc1 (configuration not stated)	59.8 µg/mL	48.6 µg/mL	> 150 µg/mL	104 µg/mL	46.8 µg/mL	49.4 µg/mL	50.9 µg/mL	51 µg/mL	48.1 µg/mL	53.7 µg/mL	30.4 µg/mL	27.7 µg/mL	24.6 µg/mL	37.7 µg/mL	26.1 µg/mL	28.3 µg/mL	27.7 µg/mL	26.9 µg/mL	26.9 µg/mL	28 µg/mL
O=[N+]([O-])c1ccc(Sc2ncccn2)c([N+](=O)[O-])c1	20.7 µM	13.5 µM	5.5 µM	25.4 µM	11.1 µM	3.59 µM	19.1 µM	8.82 µM	5.77 µM	19.6 µM	7.6 µM	3.89 µM	2.04 µM	2.32 µM	3.41 µM	1.36 µM	5.28 µM	2.63 µM	2.57 µM	5.08 µM
Cc1ccc(S(=O)(=O)NC(CCC(=O)Nc2ccc(Cl)cc2)C(=O)Nc2ccc(Cl)cc2)cc1 (configuration not stated)	5.34 µM	6.48 µM	7.22 µM	7.66 µM	6.57 µM	8.14 µM	9.21 µM	1.54 µM	10 µM	8.04 µM	0.717 µM	0.625 µM	0.203 µM	0.691 µM	0.248 µM	0.473 µM	1.49 µM	0.21 µM	2.95 µM	0.862 µM
O=C(c1cccs1)c1c(C(F)(F)F)n([O-])c2ccc(C(F)(F)F)cc2[n+]1=O	3.04 µM	0.908 µM	2.11 µM	0.498 µM	0.326 µM	0.337 µM	1 µM	0.36 µM	1.31 µM	0.355 µM	1.65 µM	0.451 µM	0.224 µM	0.174 µM	0.183 µM	0.18 µM	0.353 µM	0.183 µM	0.596 µM	0.182 µM
COc1cc(-c2cc(C(=O)N3CCN(C(=O)c4ccccc4NCc4ccco4)CC3)nc3cc(-c4ccccc4)nn23)cc(OC)c1OC	> 28.4 µM	> 100 µM	> 100 µM	> 100 µM	> 100 µM	> 100 µM	> 100 µM	> 26 µM	> 100 µM	> 100 µM	3.02 µM	16.6 µM	4.57 µM	11.2 µM	6.97 µM	1.34 µM	5.5 µM	3.11 µM	6.74 µM	4.38 µM
NNC(=O)/C(=C/c1cccc([N+](=O)[O-])c1)NC(=O)c1ccccc1	> 100 µM	> 100 µM	> 100 µM	> 100 µM	> 100 µM	> 100 µM	> 100 µM	> 100 µM	> 100 µM	> 100 µM										
COc1ccc(-c2cc(-c3ccc(Nc4nc(Nc5ccc(Cl)cc5)nc(Nc5ccc(Cl)cc5)n4)cc3)nc(N)c2C#N)cc1	5.84 µM	1.22 µM	> 27.6 µM	3.56 µM	2.18 µM	4.38 µM	> 87.7 µM	4.15 µM	3.77 µM	8.38 µM	2.3 µM	0.49 µM	0.929 µM	0.702 µM	0.803 µM	1.47 µM	3.52 µM	2.02 µM	2.08 µM	2.88 µM
Cn1cc(-c2ccc(=O)n(Cc3cccc(-c4ncc(OCCN5CCOCC5)cn4)c3)n2)cn1	> 100 µM	> 100 µM	> 100 µM	> 100 µM	> 100 µM	> 100 µM	> 100 µM	> 100 µM	> 100 µM	> 100 µM	60.1 µM	> 89.5 µM	82.1 µM	36.4 µM	> 83.6 µM	> 79.7 µM	32.9 µM	> 100 µM	99 µM	> 100 µM
Nc1nc(N)[n+]([O-])c(N)c1NCO	> 100 µM	> 100 µM	> 100 µM	> 100 µM	> 100 µM	> 100 µM	> 100 µM	> 100 µM	> 100 µM	> 100 µM										
CCCCCCCCCCCCCCCCCCNC(=O)[C@H]1CSC(c2ccc(OC)c(F)c2)N1 (some centres not stated)	> 38.3 µM	3.52 µM	8.13 µM	9.18 µM	> 52.1 µM	16.9 µM	27 µM	> 37.6 µM	> 57.7 µM	4.14 µM		1.42 µM	0.731 µM	1.48 µM	> 36.8 µM	3.98 µM	7.22 µM	4.67 µM	28.3 µM	1.73 µM
O=[N+]([O-])c1ccc(N/N=C\c2cc(Cl)ccc2O)nc1	> 100 µM	> 100 µM	> 100 µM	> 100 µM	39.4 µM	1.07 µM	9 µM	> 100 µM	23.6 µM	22.9 µM	17 µM	3.65 µM	0.386 µM	0.51 µM	0.696 µM	0.278 µM	0.541 µM	3.02 µM	2 µM	0.595 µM
COC1C=C(Nc2cccc(Cl)c2)C(=O)C1 (configuration not stated)	32.2 µM	> 100 µM	> 100 µM	> 100 µM	> 100 µM	> 100 µM	> 100 µM	> 100 µM	> 100 µM	> 100 µM										
NC(N)=NS(=O)(=O)c1ccc(NC(=O)c2cccc3c(Nc4ccc(S(=O)(=O)N=C(N)N)cc4)c4ccc(Cl)cc4nc23)cc1	> 100 µM	> 100 µM	> 100 µM	> 100 µM	> 100 µM	> 100 µM	> 100 µM	> 100 µM	> 100 µM	> 100 µM										
O=C1/C(=C\c2ccc(Cl)cc2)CN(C(=S)Nc2ccccc2)C/C1=C\c1ccc(Cl)cc1	3.15 µM	3.39 µM	13.2 µM	13.7 µM	2.65 µM	> 29.2 µM	3.92 µM	1.54 µM	4.48 µM	2.26 µM	1.66 µM	1.79 µM	0.453 µM	1.74 µM	1.22 µM	2.56 µM	1.3 µM	0.427 µM	1.96 µM	0.754 µM
CCOC(=O)c1cnc(SCc2ccc(Cl)c(Cl)c2)nc1N1CC1	14.4 µM	19.9 µM	28.1 µM	15 µM	13.2 µM	6.98 µM	14.5 µM	12.3 µM	15.2 µM	12.2 µM	2.82 µM	5.88 µM	2.82 µM	3.27 µM	3.12 µM	2.08 µM	3.62 µM	3.3 µM	3.87 µM	3.05 µM
O/N=C1\CCc2cc(-c3nc(C4CCNCC4)[nH]c3-c3ccncc3)ccc21	> 25 µM	> 21.3 µM	> 25 µM	> 25 µM	> 25 µM	> 25 µM	> 25 µM	> 25 µM	> 25 µM	> 25 µM	> 25 µM	1.5 µM	> 25 µM	> 25 µM	> 25 µM	> 25 µM	> 25 µM	> 25 µM	> 25 µM	> 25 µM
